Source: US20150025025A1, “Immuno-modulators for treating functional epithelial syndromes” (priority 2013, published 2015)

Columns and labels:
[1] = system: patients having esophageal erosions; test: Randomized seven day trial in patients with esophageal erosions (Example 19); format: in vivo, human; conditions: for Complete Relief, number of patients / Complete Relief, percent of patients: loss of all symptoms by day 8; for Complete Healing, number of patients / Complete Healing, percent of patients: no erosions by endoscopy at day 8
Description: The trial period was seven days. There were two primary end points, i.e., healing and no healing, and three secondary end points, i.e., no relief, partial relief, and complete relief of pain. Healing was defined as no evidence of erosions by endoscopy at day 8 that were present on day 0. No healing was defined as evidence of erosions remaining on day 8.

[2] = system: patient with functional dyspepsia; test: Case: patient with functional dyspepsia (Example 14); format: in vivo, human; conditions: post-prandial early satiety, bloating, indigestion
Description: A person diagnosed with functional dyspepsia according to the Rome II criteria suffered from post-prandial early satiety, bloating, and stomach indigestion. […] Initially, there was only a lessening of post-prandial indigestion.

right dorsal colitis = test: Case: equine right dorsal colitis (Example 23); format: in vivo, horse; conditions: 8-12 grams four times daily, NSAID stopped
Protocol: An 8 year old quarter horse diagnosed with right dorsal colitis by an equine veterinarian had been on high doses of bananime, a non-steroidal anti-inflammatory (NSAID) pain reliever. Right dorsal colitis is known to be caused by ulcerations within the colon of the horse. Treatment was initiated by cessation of the NSAID and administration of 8-12 grams sucralfate four times daily. […] Oral administration to the horse of 30 ml of an immuno-modulating polygalacturonic-rhamnose suspension every 8 hours led to an improvement in attitude and appetite within 24 hours, a complete cessation of diarrhea in 36 hours, and the resumption of a regular diet in 72 hours.

[3] = system: gastroduodenal ulceration; test: Case: equine ulcer colic in a foal (Example 24); format: in vivo; conditions: prior treatment
Description: A 3 week old equine foal was diagnosed by a large animal veterinarian with gastroduodenal ulceration following 3 days of poor appetite. […] The foal resumed normal diet and activity by day 4 of treatment.

Compound	Complete Relief, number of patients [1]	Complete Relief, percent of patients [1] [%]	Complete Healing, number of patients [1]	Complete Healing, percent of patients [1]	Complete Healing, percent of patients ([1]; listed as ranitidine) [%]	Effect on symptoms of functional dyspepsia [2]	Course of right dorsal colitis under treatment (right dorsal colitis)	Effect on symptoms [3]
CNC(=C[N+](=O)[O-])NCCSCc1ccc(CN(C)C)o1 [H2B Ranitidine, ranitidine]	3	30	0 (0%)	0 (0%)	0			
COc1ccc2[nH]c([S+]([O-])Cc3ncc(C)c(OC)c3C)nc2c1 (centres unmarked) [Omeprazole, omeprazole]	4	40	3	30%				
COc1ccc2nc([S@@+]([O-])Cc3ncc(C)c(OC)c3C)[nH]c2c1 [esomeprazole]						failed to improve their symptoms		
COCCCOc1ccnc(C[S+]([O-])c2nc3ccccc3[nH]2)c1C (centres unmarked) [raberazole]						failed to improve their symptoms		
sucralfate						failed to improve their symptoms	worsened after 2 days	failed to alleviate the symptoms
